This note sets out measurements from ChEMBL document CHEMBL4699521, “Design and synthesis of 4-Aminoquinoline-isoindoline-dione-isoniazid triads as potential anti-mycobacterials” (Bioorg Med Chem Lett, 2020).

Values after ≈ are worked out from the molar mass of the structure shown.

The subject of data set [1] is Mycobacterium tuberculosis. The experiment in a line: Antimycobacterial activity against Mycobacterium tuberculosis H37Rv assessed as reduction in bacterial cell growth. Type of data set: functional.
The test system of data set [2] is Mycobacterium tuberculosis. Briefly: Antitubercular activity against Mycobacterium tuberculosis H37Rv assessed as reduction in bacterial cell growth measured after 7 days by alamar blue assay. Type of data set: functional. To be noted: 168 h, time 7 day. (The colour change of resazurin is a common sign of viable cells or microbes.)
In data set [3] the target is T1, Enoyl-[acyl-carrier-protein] reductase [NADH] (Mycobacterium tuberculosis) (UniProt P9WGR1).
T1 sequence (whole entry): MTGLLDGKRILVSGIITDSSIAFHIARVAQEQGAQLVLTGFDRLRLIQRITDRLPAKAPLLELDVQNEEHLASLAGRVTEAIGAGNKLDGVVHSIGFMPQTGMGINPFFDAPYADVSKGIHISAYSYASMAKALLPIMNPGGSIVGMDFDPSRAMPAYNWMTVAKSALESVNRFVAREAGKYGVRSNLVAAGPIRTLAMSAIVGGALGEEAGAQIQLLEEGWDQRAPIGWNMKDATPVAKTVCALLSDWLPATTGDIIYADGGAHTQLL
The experiment in a line: Inhibition of Mycobacterium tuberculosis mc2 6230 InhA assessed as antimycobacterial activity by measuring minimum inhibitory concentration required to inhibit 99% of bacterial growth.

The subject of data set [4] is Vero. The experiment in a line: Cytotoxicity against African green monkey Vero cells. To be noted: Chlorocebus sabaeus. Type of data set: cell-based.
Data set [5] is described as follows: Selectivity index, ratio of IC50 for African green monkey Vero cells to MIC99 for Mycobacterium tuberculosis mc2 6230. To be noted: read-out: Selectivity Index. The class given is toxicity.
Data set [6] relates to Mycobacterium tuberculosis. The experiment in a line: Antitubercular activity against Mycobacterium tuberculosis mc2 6230 assessed as minimum inhibitory concentration required to inhibit 99% of bacterial growth incubated for 7 days by two-fold serial dilution method. The class given is functional. To be noted: mc2 6230, 168 h, time 7 day.
Data set [7] concerns Vero. The experiment in a line: Cytotoxicity against African green monkey Vero cells assessed as reduction in cell viability measured after 24 hrs by resazurin assay. The class given is cell-based. To be noted: Chlorocebus sabaeus.
The test system of data set [8] is Mycobacterium tuberculosis. Briefly: Antitubercular activity against Mycobacterium tuberculosis mc2 6230 assessed as minimum inhibitory concentration required to inhibit 99% of bacterial growth. The class given is functional.
Data set [9] concerns Mycobacterium tuberculosis. The experiment in a line: Antitubercular activity against Mycobacterium tuberculosis mc2 6230 assessed as minimum inhibitory concentration required to inhibit 99% of bacterial growth measured after 2 to 3 weeks. The class given is functional. To be noted: time weeks 2-3.

As to `O=C(NN1C(=O)c2c(F)c(F)c(F)c(F)c2C1=O)c1ccncc1`, in data set [1], the MIC (commonly the lowest concentration found to suppress growth) stood at 3.4 µM (≈ 1.15 µg/mL).
`O=C(Cn1cc(CN2C(=O)c3ccccc3C2=O)nn1)Nc1ccc(Br)cc1`: the minimum inhibitory concentration (MIC) in data set [2] came to 28.4 µM (≈ 12.5 µg/mL).
As to `O=C(NCCCCCCCCNc1ccnc2cc(Cl)ccc12)c1ccc2c(c1)C(=O)N(NC(=O)c1ccncc1)C2=O`, in [3], the MIC99 was 5.1 µM (≈ 3.06 µg/mL). The IC50 (in general, the concentration at which inhibition is half-maximal) with Vero [4] is above 167 µM. In addition, the selectivity ratio in data set [5] was above 32.7.
Turning to `O=C(CN1C(=O)c2ccc(F)cc2C1=O)NCCNc1ccnc2cc(Cl)ccc12`, the MIC in [6] was 14.6 µM (≈ 6.23 µg/mL). Further, in the data set on Vero [7], the IC50 is above 235 µM.
Turning to `O=C(NNC(=O)c1ccc2c(c1)C(=O)N(CCCCCCCCNc1ccnc3cc(Cl)ccc13)C2=O)c1ccncc1`, the MIC99 in data set [3] is 5.1 µM (≈ 3.06 µg/mL). Moreover, the IC50 in the data set on Vero [4] was determined as 129 µM. In data set [5], the selectivity ratio turned out to be 25.
In the same order, the values of `O=C(NNC(=O)c1ccc2c(c1)C(=O)N(CCCCNc1ccnc3cc(Cl)ccc13)C2=O)c1ccncc1` are 23 µM (≈ 12.5 µg/mL), 16.6 µM and 0.7.
In the same order, the values of `O=C(NCCCCNc1ccnc2cc(Cl)ccc12)c1ccc2c(c1)C(=O)N(NC(=O)c1ccncc1)C2=O` are 23 µM (≈ 12.5 µg/mL), 14.7 µM and 0.6.
For `NNC(=O)c1ccncc1`, the MIC99 in data set [3] was 0.07 µM (≈ 0.0096 µg/mL).
Consider `O=C(O)c1ccc2c(c1)C(=O)N(CCCCNc1ccnc3cc(Cl)ccc13)C2=O`, for which the MIC99 in [3] came out at 236 µM (≈ 100 µg/mL). In the data set with Vero [4], this compound showed an IC50 of 40.1 µM. For the same compound, the selectivity ratio in data set [5] was found to be 0.16.
Regarding `O=C(NNC(=O)c1ccc(N2C(=O)c3ccccc3C2=O)cc1)c1ccncc1`, the MIC99 in data set [3] was found to be 129 µM (≈ 50 µg/mL). For the same compound, in the data set on Vero [4], the IC50 was above 259 µM. The selectivity ratio in data set [5] was above 2.
In the same order, the values of `O=C(NCCCNc1ccnc2cc(Cl)ccc12)c1ccc2c(c1)C(=O)N(NC(=O)c1ccncc1)C2=O` are 5.8 µM (≈ 3.07 µg/mL), 161 µM and 27.
On to `O=C(NN1C(=O)c2cccc3cccc(c23)C1=O)c1ccncc1`, for which the MIC in [8] was above 631 µM.
Consider `O=C(O)c1ccc2c(c1)C(=O)N(CCCCCCNc1ccnc3cc(Cl)ccc13)C2=O`, for which, in [3], the MIC99 is 222 µM (≈ 100 µg/mL). This compound also displayed an IC50 in the data set on Vero [4] of 24.3 µM. Further, the selectivity ratio in data set [5] amounted to 0.11.
For `O=C(CN1C(=O)c2ccccc2C1=O)NNC(=O)c1ccncc1`, in [3], the MIC99 was 308 µM (≈ 100 µg/mL). Moreover, the IC50 in the data set on Vero [4] is above 308 µM. Besides, the selectivity ratio in [5] is above 1.
Turning to `Cc1ccc(N2C(=O)C(NC(=O)CCNc3ccnc4cc(Cl)ccc34)[C@@H]2/C=C/c2ccccc2)cc1` (some centres not stated), the MIC in [9] was 9.8 µM (≈ 5.01 µg/mL).
Consider `O=C(NNC(=O)c1ccc2c(c1)C(=O)N(CCCCCCNc1ccnc3cc(Cl)ccc13)C2=O)c1ccncc1`, for which the MIC99 in [3] came to 21.9 µM (≈ 12.5 µg/mL). In the data set on Vero [4], this compound displayed an IC50 of 128 µM. The selectivity ratio in data set [5] was determined as 5.8.
For the compound `O=C1c2ccc(N3CCCCC3)cc2C(=O)N1CCCCNc1ccnc2cc(Cl)ccc12`, the MIC in data set [6] was 13.5 µM (≈ 6.25 µg/mL). Also, the half-inhibitory concentration (IC50) with Vero [7] was above 216 µM.
With `O=C(NN1C(=O)c2ccc(N3CCN(c4ccnc5cc(Cl)ccc45)CC3)cc2C1=O)c1ccncc1`, the MIC99 in data set [3] was 6 µM (≈ 3.08 µg/mL). In the data set with Vero [4], this compound yielded an IC50 above 195 µM. In addition, the selectivity ratio in data set [5] is above 32.5.
As for `O=C(NCCNc1ccnc2cc(Cl)ccc12)c1ccc2c(c1)C(=O)N(NC(=O)c1ccncc1)C2=O`, the MIC99 in data set [3] was 6 µM (≈ 3.09 µg/mL). Also, the IC50 with Vero [4] came to 64.1 µM. Also, in data set [5], the selectivity ratio turned out to be 10.6.
For `O=C(O)c1ccc2c(c1)C(=O)N(CCCNc1ccnc3cc(Cl)ccc13)C2=O`, the MIC99 in [3] was 489 µM (≈ 200 µg/mL). The compound also gave an IC50 in the data set with Vero [4] of 242 µM. The selectivity ratio in data set [5] came to 0.5.
`O=C1C(=O)N(CCCN2CCN(c3ccnc4cc(Cl)ccc34)CC2)c2ccc(F)cc21`: in data set [9], the minimal inhibitory concentration (MIC) is below 10.1 µM.
In the case of `O=C(NNC(=O)c1ccc2c(c1)C(=O)N(CCNc1ccnc3cc(Cl)ccc13)C2=O)c1ccncc1`, the MIC99 in data set [3] was 389 µM (≈ 200 µg/mL). This compound had an IC50 in the data set with Vero [4] above 194 µM. Also, the selectivity ratio in data set [5] is above 0.5.
Take `O=C(NN1C(=O)c2ccc(C(=O)OCCCNc3ccnc4cc(Cl)ccc34)cc2C1=O)c1ccncc1`: the MIC99 in data set [3] is 11.9 µM (≈ 6.31 µg/mL). The compound further registered a half-inhibitory concentration (IC50) in the data set with Vero [4] above 194 µM. Further, the selectivity ratio in [5] is above 16.
In the case of `O=C1c2ccccc2C(=O)N1CCCCCCCCNc1ccnc2cc(Cl)ccc12`, in data set [8], the MIC was determined as 13.5 µM (≈ 5.89 µg/mL). Further, the IC50 in the data set with Vero [4] is 11.4 µM.
On to `O=C(O)c1ccc2c(c1)C(=O)N(CCNc1ccnc3cc(Cl)ccc13)C2=O`, for which the MIC99 in data set [3] was above 506 µM. The compound also came in with an IC50 in the data set on Vero [4] above 253 µM. Moreover, the selectivity ratio in data set [5] is above 0.5.
The corresponding values for `O=C(NN1C(=O)c2ccc(C(=O)OCCNc3ccnc4cc(Cl)ccc34)cc2C1=O)c1ccncc1` are above 388 µM, above 194 µM and above 0.5.
In the same order, the values of `O=C(NNC(=O)c1ccc2c(c1)C(=O)N(CCCNc1ccnc3cc(Cl)ccc13)C2=O)c1ccncc1` are 47.3 µM (≈ 25 µg/mL), 119 µM and 2.5.
As for `O=C(NCCCCCCNc1ccnc2cc(Cl)ccc12)c1ccc2c(c1)C(=O)N(NC(=O)c1ccncc1)C2=O`, the MIC99 in data set [3] was found to be 11 µM (≈ 6.28 µg/mL). Moreover, half-maximal inhibition in the data set with Vero [4] (IC50) was put at 33.3 µM. Also, the selectivity ratio in data set [5] came out at 3.
In the same order, the values of `O=C(O)c1ccc2c(c1)C(=O)N(CCCCCCCCNc1ccnc3cc(Cl)ccc13)C2=O` are 417 µM (≈ 200 µg/mL), above 209 µM and above 0.5.
